Data from US9115126B2, “1H-[1,2,3]triazolo[4,5-c]pyridine-4-carbonitrile derivatives” (Merck Sharp & Dohme B.V., priority 2010, dated 2015).
Where a name gives a salt, the structure may show the parent alone. Read-outs that look alike come from different tables or passages of the source.

Molecular target: recombinant human Cathepsin S (Homo sapiens (Human), UniProt P25774)
Test: Cathepsin S assay procedure (fluorogenic substrate Z-Val-Val-Arg-AMC)
Assay type: biochemical
Procedure: 25 μl of a 2 mg/l solution of activated recombinant human cathepsin S, in assay buffer, is then added to the well, yielding a final inhibitor concentration of 10 μM.
Enzyme activity is determined by measuring the fluorescence of the liberated aminomethylcoumarin at […] using 390 nm excitation, at 20 minutes. Percentage enzyme activity is calculated by comparison of this activity to that of a solution containing no inhibitor.

[1] = pH5.5, fluorescence at 20 minutes, read-out: Cat S activity IC50
[2] = read-out: pIC50 (negative logarithm of the IC50 concentration) for inhibition of human cathepsin S (converted)

Chain of recombinant human Cathepsin S (P25774 115-331): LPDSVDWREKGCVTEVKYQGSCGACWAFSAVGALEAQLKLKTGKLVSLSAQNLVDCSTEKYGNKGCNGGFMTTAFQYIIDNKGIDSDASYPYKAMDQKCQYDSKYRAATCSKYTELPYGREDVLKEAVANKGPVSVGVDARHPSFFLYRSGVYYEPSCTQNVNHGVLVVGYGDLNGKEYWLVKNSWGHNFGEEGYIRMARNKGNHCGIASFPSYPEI

SMILES | IC50 [1] | IC50 [2]
Cc1cccc(N2CCC(CCOc3ccc(-c4cc5c(ncn5C)c(C#N)n4)cc3C(F)(F)F)CC2)n1 [EP 09150709.5 - Example 24c, reference compound] | 26 nM | –
Cn1nnc2c(C#N)nc(-c3ccc(OCCC4CCNCC4)c(C(F)(F)F)c3)cc21 [Example 1, 1-methyl-6-(4-(2-(piperidin-4-yl)ethoxy)-3-(trifluoromethyl)phenyl)-1H-[1,2,3]triazolo[4,5-c]pyridine-4-carbonitrile] | 0.8 nM | < 10 nM
CNC(=O)CN1CCC(CCOc2ccc(-c3cc4c(nnn4C)c(C#N)n3)cc2C(F)(F)F)CC1 [Example 2b, 1-methyl-6-(4-(2-(1-(2-methylamino-2-oxoethyl)piperidin-4-yl)ethoxy)-3-(trifluoromethyl)phenyl)-1H-[1,2,3]triazolo[4,5-c]pyridine-4-carbonitrile TFA salt] | – | < 10 nM
Cn1nnc2c(C#N)nc(-c3ccc(OCCC4CCN(CC(N)=O)CC4)c(C(F)(F)F)c3)cc21 [Example 2c, 6-(4-(2-(1-(2-amino-2-oxoethyl)piperidin-4-yl)ethoxy)-3-(trifluoromethyl)phenyl)-1-methyl-1H-[1,2,3]triazolo[4,5-c]pyridine-4-carbonitrile] | – | < 10 nM
Cn1nnc2c(C#N)nc(-c3ccc(OCCC4CCN(Cc5ncon5)CC4)c(C(F)(F)F)c3)cc21 [Example 3c, 6-(4-(2-(1-((1,2,4-oxadiazol-3-yl)methyl)piperidin-4-yl)ethoxy)-3-(trifluoromethyl)phenyl)-1-methyl-1H-[1,2,3]triazolo[4,5-c]pyridine-4-carbonitrile] | – | < 10 nM
Cn1nnc2c(C#N)nc(-c3ccc(OCCC4CCN(Cc5ncno5)CC4)c(C(F)(F)F)c3)cc21 [Example 3k, 6-(4-(2-(1-((1,2,4-oxadiazol-5-yl)methyl)piperidin-4-yl)ethoxy)-3-(trifluoromethyl)phenyl)-1-methyl-1H-[1,2,3]triazolo[4,5-c]pyridine-4-carbonitrile] | – | < 10 nM
Cc1ccc(N2CCC(CCOc3ccc(-c4cc5c(nnn5C)c(C#N)n4)cc3C(F)(F)F)CC2)nc1 [Example 8, 1-methyl-6-(4-(2-(1-(5-methylpyridin-2-yl)piperidin-4-yl)ethoxy)-3-(trifluoromethyl)phenyl)-1H-[1,2,3]triazolo[4,5-c]pyridine-4-carbonitrile hydrochloride] | – | < 10 nM
Cn1nnc2c(C#N)nc(-c3ccc(OCCC4CCN(CCS(C)(=O)=O)CC4)c(C(F)(F)F)c3)cc21 [Example 19, 1-methyl-6-(4-(2-(1-(2-(methylsulfonyl)ethyl)piperidin-4-yl)ethoxy)-3-(trifluoromethyl)phenyl)-1H-[1,2,3]triazolo[4,5-d]pyridine-4-carbonitrile] | – | < 10 nM
Cn1nnc2c(C#N)nc(-c3ccc(OCc4ccccn4)c(C(F)(F)F)c3)cc21 [Example 20, 1-methyl-6-(4-(pyridin-2-ylmethoxy)-3-(trifluoromethyl)phenyl)-1H-[1,2,3]triazolo[4,5-c]pyridine-4-carbonitrile] | – | < 10 nM
Cn1nnc2c(C#N)nc(-c3ccc(OCc4cccc[n+]4[O-])c(C(F)(F)F)c3)cc21 [Example 21, 1-methyl-6-(4-(1-N-oxy-pyridin-2-ylmethoxy)-3-(trifluoromethyl)phenyl)-1H-[1,2,3]triazolo[4,5-c]pyridine-4-carbonitrile] | – | < 10 nM
Cn1nnc2c(C#N)nc(-c3ccc(OCc4cccnc4)c(C(F)(F)F)c3)cc21 [Example 22, 1-methyl-6-(4-(pyridin-3-ylmethoxy)-3-(trifluoromethyl)phenyl)-1H-[1,2,3]triazolo[4,5-c]pyridine-4-carbonitrile] | – | < 10 nM
Cn1nnc2c(C#N)nc(-c3ccc(OCc4ccc[n+]([O-])c4)c(C(F)(F)F)c3)cc21 [Example 23, methyl-6-(4-(1-N-oxy-pyridin-3-ylmethoxy)-3-(trifluoromethyl)phenyl)-1H-[1,2,3]triazolo[4,5-c]pyridine-4-carbonitrile] | – | < 10 nM
Cn1nnc2c(C#N)nc(-c3ccc(OCc4ccncc4)c(C(F)(F)F)c3)cc21 [Example 24, 1-methyl-6-(4-(pyridin-4-ylmethoxy)-3-(trifluoromethyl)phenyl)-1H-[1,2,3]triazolo[4,5-c]pyridine-4-carbonitrile] | – | < 10 nM
Cn1nnc2c(C#N)nc(-c3ccc(OCc4cc[n+]([O-])cc4)c(C(F)(F)F)c3)cc21 [Example 25, methyl-6-(4-(1-N-oxy-pyridin-4-ylmethoxy)-3-(trifluoromethyl)phenyl)-1H-[1,2,3]triazolo[4,5-c]pyridine-4-carbonitrile] | – | < 10 nM
Cn1nnc2c(C#N)nc(-c3cnc(OCCC4CCNCC4)c(C(F)(F)F)c3)cc21 [Example 26, 1-Methyl-6-(6-(2-(piperidin-4-yl)ethoxy)-5-(trifluoromethyl)pyridin-3-yl)-1H-[1,2,3]-triazolo[4,5-c]pyridine-4-carbonitrile trifluoroacetate] | – | < 10 nM
Cn1nnc2c(C#N)nc(-c3ccc(OCCC4CCN(C(=O)C5(N)CC5)CC4)c(C(F)(F)F)c3)cc21 [Example 29, 6-(4-(2-(1-(1-aminocyclopropanecarbonyl)piperidin-4-yl)ethoxy)-3-(trifluoromethyl)phenyl)-1-methyl-1H-[1,2,3]triazolo[4,5-d]pyridine-4-carbonitrile] | – | < 10 nM
Cn1nnc2c(C#N)nc(-c3ccc(OCCC4CNC4)c(C(F)(F)F)c3)cc21 [Example 30, 6-(4-(2-(azetidin-3-yl)ethoxy)-3-(trifluoromethyl)phenyl)-1-methyl-1H-[1,2,3]triazolo[4,5-d]pyridine-4-carbonitrile 2,2,2-trifluoroacetate] | – | < 10 nM
CN(C)C(=O)CN1CC(CCOc2ccc(-c3cc4c(nnn4C)c(C#N)n3)cc2C(F)(F)F)C1 [Example 31, 6-(4-(2-(1-(2-dimethylamino-2-oxoethyl)azetidin-3-yl)ethoxy)-3-(trifluoromethyl)phenyl)-1-methyl-1H-[1,2,3]triazolo[4,5-c]pyridine-4-carbonitrile Hydrochloride] | – | < 10 nM
Cn1nnc2c(C#N)nc(-c3ccc(OCCCO)c(C(F)(F)F)c3)cc21 [Example 32, 6-(4-(3-hydroxypropoxy)-3-(trifluoromethyl)phenyl)-1-methyl-1H-[1,2,3]triazolo[4,5-c]pyridine-4-carbonitrile] | – | < 10 nM
CN(C)CCCOc1ccc(-c2cc3c(nnn3C)c(C#N)n2)cc1C(F)(F)F [Example 35, 6-(4-(3-(dimethylamino)propoxy)-3-(trifluoromethyl)phenyl)-1-methyl-1H-[1,2,3]triazolo[4,5-c]pyridine-4-carbonitrile] | 3.3 nM | < 10 nM

More lines, now with the values ahead:

IC50 [1] | IC50 [2] | SMILES
– | < 10 nM | Cn1nnc2c(C#N)nc(-c3ccc(OCCC4CCN(c5ccccn5)CC4)c(C(F)(F)F)c3)cc21 [Example 4a, 1-methyl-6-(4-(2-(1-(pyridin-2-yl)piperidin-4-yl)ethoxy)-3-(trifluoromethyl)phenyl)-1H-[1,2,3]triazolo[4,5-c]pyridine-4-carbonitrile hydrochloride]
9 nM | < 10 nM | Cc1cccc(N2CCC(CCOc3ccc(-c4cc5c(nnn5C)c(C#N)n4)cc3C(F)(F)F)CC2)n1 [Example 4b, 1-methyl-6-(4-(2-(1-(6-methylpyridin-2-yl)piperidin-4-yl)ethoxy)-3-(trifluoromethyl)phenyl)-1H-[1,2,3]triazolo[4,5-c]pyridine-4-carbonitrile hydrochloride]
– | < 10 nM | Cc1ccc(N2CC[C@@H](CCOc3ccc(-c4cc5c(nnn5C)c(C#N)n4)cc3C(F)(F)F)C2)nc1 [Example 9a, (S)-1-methyl-6-(4-(2-(1-(5-methylpyridin-2-yl)pyrrolidin-3-yl)ethoxy)-3-(trifluoromethyl)phenyl)-1H-[1,2,3]triazolo[4,5-c]pyridine-4-carbonitrile hydrochloride]
– | < 10 nM | Cc1ccc(N2CC[C@H](CCOc3ccc(-c4cc5c(nnn5C)c(C#N)n4)cc3C(F)(F)F)C2)nc1 [Example 9b, (R)-1-methyl-6-(4-(2-(1-(5-methylpyridin-2-yl)pyrrolidin-3-yl)ethoxy)-3-(trifluoromethyl)phenyl)-1H-[1,2,3]triazolo[4,5-c]pyridine-4-carbonitrile hydrochloride]
– | < 10 nM | CN(C)C(=O)CN1CCC(CCOc2ncc(-c3cc4c(nnn4C)c(C#N)n3)cc2C(F)(F)F)CC1 [Example 27a, 6-(6-(2-(1-(2-Dimethylamino-2-oxo-ethyl)piperidin-4-yl)ethoxy)-5-(trifluoromethyl)pyridin-3-yl)-1-methyl-1H-[1,2,3]triazolo[4,5-c]pyridine-4-carbonitrile hydrochloride]
– | < 10 nM | CCN(CC)CCCOc1ccc(-c2cc3c(nnn3C)c(C#N)n2)cc1C(F)(F)F [Example 36q, 6-(4-(3-(diethylamino)propoxy)-3-(trifluoromethyl)phenyl)-1-methyl-1H-[1,2,3]triazolo[4,5-c]pyridine-4-carbonitrile]
– | < 10 nM | Cn1nnc2c(C#N)nc(-c3ccc(OCCCN4CCN(CCO)CC4)c(C(F)(F)F)c3)cc21 [Example 36t, 6-(4-(3-(4-(2-hydroxyethyl)piperazin-1-yl)propoxy)-3-(trifluoromethyl)phenyl)-1-methyl-1H-[1,2,3]triazolo[4,5-c]pyridine-4-carbonitrile dihydrochloride]
– | < 10 nM | Cn1nnc2c(C#N)nc(-c3ccc(OCCCN4CCN(CC(C)(C)O)CC4)c(C(F)(F)F)c3)cc21 [Example 36u, 6-(4-(3-(4-(2-hydroxy-2-methylpropyl)piperazin-1-yl)propoxy)-3-(trifluoromethyl)phenyl)-1-methyl-1H-[1,2,3]triazolo[4,5-c]pyridine-4-carbonitrile dihydrochloride]
– | < 10 nM | CNC(=O)CN1CCN(CCCOc2ccc(-c3cc4c(nnn4C)c(C#N)n3)cc2C(F)(F)F)CC1 [Example 36v, 2-(4-(3-(4-(4-cyano-1-methyl-1H-[1,2,3]triazolo[4,5-c]pyridin-6-yl)-2-(trifluoromethyl)phenoxy)propyl)piperazin-1-yl)-N-methylacetamide dihydrochloride]
